The NIST ThermoML archive (doi:10.1021/je800497u)

What was measured:
[1] = 101 kPa, Liquid
[2] = xn = mol fraction of the nth substance listed; conditions: 101 kPa, Liquid

CCCO [propan-1-ol]
[1]
Conditions | mass density [kg/m3] | viscosity [mPa·s]
293.15 K | 803.5 | 2.272
298.15 K | 799.6 | 1.966

CCCCCCCCCCCO [1-undecanol]
[1]
Conditions | mass density [kg/m3] | viscosity [mPa·s]
293.15 K | 832.5 | 17.18
298.15 K | 829 | 14.02

CCCCCO [pentan-1-ol]
[1]
Conditions | mass density [kg/m3] | viscosity [mPa·s]
293.15 K | 814.6 | 4.029
298.15 K | 811 | 3.494

CCCCCCCO [heptan-1-ol]
[1]
Conditions | mass density [kg/m3] | viscosity [mPa·s]
293.15 K | 822.2 | 7.104
298.15 K | 818.7 | 5.993

CCCCCO [pentan-1-ol] + CCCO
[2]
Conditions | mass density, 293.15 K [kg/m3] | mass density, 298.15 K [kg/m3] | viscosity, 293.15 K [mPa·s] | viscosity, 298.15 K [mPa·s]
x2 = 0 | 814.6 | 811 | 4.029 | 3.494
x2 = 0.0959 | 813.7 | 810.1 | 3.825 | 3.325
x2 = 0.2143 | 812.8 | 809.1 | 3.584 | 3.126
x2 = 0.2969 | 812 | 808.4 | 3.446 | 3.008
x2 = 0.4097 | 810.9 | 807.2 | 3.214 | 2.828
x2 = 0.5053 | 809.9 | 806.2 | 3.072 | 2.695
x2 = 0.5963 | 809 | 805.2 | 2.908 | 2.537
x2 = 0.6924 | 807.8 | 804 | 2.758 | 2.402
x2 = 0.7892 | 806.6 | 802.8 | 2.582 | 2.283
x2 = 0.8797 | 805.4 | 801.5 | 2.442 | 2.126

CCCCCCCCCO [nonan-1-ol]
[1]
Conditions | mass density [kg/m3] | viscosity [mPa·s]
293.15 K | 827.9 | 11.68
298.15 K | 824.4 | 9.671

CCCCCO [pentan-1-ol] + CCCCCCCCCCCO
[2], x1 = 1
Conditions | mass density [kg/m3] | viscosity [mPa·s]
293.15 K | 814.6 | 4.029
298.15 K | 811 | 3.494

CCCCCCCCCCCO [1-undecanol] + CCCCCCCCCO
[2]
Conditions | mass density, 293.15 K [kg/m3] | mass density, 298.15 K [kg/m3] | viscosity, 293.15 K [mPa·s] | viscosity, 298.15 K [mPa·s]
x2 = 0 | 832.5 | 829 | 17.18 | 14.02
x2 = 0.1177 | 831.4 | 827.9 | 16.86 | 13.84
x2 = 0.248 | 830.8 | 827.4 | 16.21 | 13.3
x2 = 0.3116 | 830.5 | 827.1 | 15.57 | 12.72
x2 = 0.4007 | 830.2 | 826.8 | 15.49 | 12.68
x2 = 0.5017 | 829.8 | 826.4 | 14.66 | 12.03
x2 = 0.6004 | 829.4 | 826 | 13.83 | 11.33
x2 = 0.6921 | 829 | 825.6 | 13.5 | 11.12
x2 = 0.7943 | 828.6 | 825.2 | 12.79 | 10.55
x2 = 0.8915 | 828.1 | 824.7 | 12.06 | 9.982

CCCCCCCCCCCO [1-undecanol] + CCCCCCCO
[2]
Conditions | mass density, 293.15 K [kg/m3] | mass density, 298.15 K [kg/m3] | viscosity, 293.15 K [mPa·s] | viscosity, 298.15 K [mPa·s]
x2 = 0 | 832.5 | 829 | 17.18 | 14.02
x2 = 0.1245 | 830.7 | 827.3 | 16.37 | 13.36
x2 = 0.2254 | 830 | 826.6 | 14.96 | 12.26
x2 = 0.2988 | 829.4 | 826 | 13.79 | 11.3
x2 = 0.4142 | 828.4 | 825 | 12.93 | 10.66
x2 = 0.5086 | 827.6 | 824.2 | 11.83 | 9.79
x2 = 0.5895 | 826.8 | 823.4 | 10.82 | 8.971
x2 = 0.6993 | 825.7 | 822.3 | 9.924 | 8.253
x2 = 0.7866 | 824.8 | 821.3 | 8.997 | 7.511
x2 = 0.8888 | 823.6 | 820.2 | 8.005 | 6.711

CCCO [propan-1-ol] + CCCCCCCCCCCO
[2], x1 = 1
Conditions | mass density [kg/m3] | viscosity [mPa·s]
293.15 K | 803.5 | 2.272
298.15 K | 799.6 | 1.966
